Data reported in patent US20050159345A1 (Boehringer Ingelheim International GmbH, priority 2002, published 2005).
Read-outs that look alike come from different tables or passages of the source.

Key:
[1] = molecular target: T1, GBV-B NS3-NS4A heterodimer protein (Hepatitis GB virus B, UniProt Q69422); test: In vitro GBV-B NS3 protease assay (HPLC); assay type: biochemical
T1 construct: The full length GBV-B NS3/NS4A protease gene was isolated from infected tamarin serum; made in house; host or cells: E. coli BL21 DE3 pLysS (pET-29)
Procedure: The depsipeptide substrate used to assess inhibition of the protease activity of GBV-B NS3-NS4A heterodimer protein was Ac-DED(EDANS)EE-Abu[C(O)—O] ASK(DABCYL)-NH2 (SEQ ID No. 16) This substrate is cleaved between the aminobutyric (Abu) and the alanine residues and products of the reaction were analyzed by HPLC. The protease activity was assayed in 50 mM Tris-HCl;, pH 8.0, 0.25M sodium citrate, 0.01 % n-dodecyl-β-D-maltoside, 1 mM TCEP. The assay was performed in a Microfluor®2 White U-Bottom Microtiter® plate. 5 μM of the substrate and various concentrations of the test compounds were incubated with 0.4 nM of GBV-B NS3-NS4A heterodimer protein for 2 hours at 23° C. under gentle agitation. […] The reaction was terminated by the addition of a 1M 2-[N-morpholino]ethanesulfonic acid solution at pH 5.8. For quantification, the cleavage products and the substrate were separated by HPLC on a Perkin-Elmer® 3×3CR C8 column. The separation was accomplished by initially eluting at 3.5 mL/min with an aqueous solution containing 0.05% phosphoric acid and 3 mM SDS. A 0 to 45% acetonitrile linear gradient in 0.05% phosphoric acid was then applied for 10 minutes. The absorbance was monitored at 210 nm.

[2] = molecular target: T2, HCV 1b NS3-NS4A heterodimer protein (UniProt P26662); test: In vitro HCV NS3 protease assay (fluorogenic depsipeptide), genotype 1b; assay type: biochemical, HCV genotype 1b; settings: read-out: IC50 HCV-1b; HCV 1b NS3-NS4A protease
T2 construct: fused on or other part: 28 extra N-terminal residues with a hexahistidine tag and an rTEV cleavage site
Source text: (§1) For production of the HCV genotype 1b NS3-NS4A heterodimer protein, a full-length HCV cDNA was cloned by RT-PCR using RNA extracted from the serum of an HCV genotype 1b infected individual (provided by Dr. Bernard Willems, Hôpital St-Luc, Montréal, Canada). […] For HCV genotype 1a, the DNA encoding NS3-NS4A heterodimer protein was PCR-amplified (forward primer: 5′[sequence]3′ (SEQ ID No.3); reverse primer: 5′[sequence]3′ (SEQ ID No.4)) from the HCV genotype la strain H77 (provided by ViroPharma Inc., Exton, Pa., U.S.) and subcloned as described above. The cloning into the pFastBac™ HTa baculovirus expression vector generated a recombinant fusion protein containing an additional N-terminal 28 residues that comprised a hexahistidine tag and a rTEV protease cleavage site. The Bac-to-Bac™ baculovirus expression system (Gibco/BRL) was used to produce the recombinant baculovirus for protein expression.
(§2) His-tagged NS3-NS4A heterodimer protease was expressed by infecting Sf21 insect cells (Invitrogen) at a density of 10^6 cells/mL with the recombinant baculovirus at a multiplicity of infection of 0.1-0.2 at 27° C. The infected culture was harvested 48 to 64 h later by centrifugation at 4° C. The cell pellet was homogenized in 50 mM sodium phosphate, pH 7.5, 40% glycerol (w/v), 2 mM β-mercaptoethanol. His-NS3-NS4A heterodimer protease was then extracted from the cell lysate with 1.5% NP-40, 0.5% Triton X-100, 0.5M NaCl, and a DNase treatment. […]

[3] = molecular target: T3, HCV 2a-c NS3-NS4A heterodimer protein (UniProt P26660); test: In vitro HCV NS3 protease assay (fluorogenic depsipeptide), genotype 2a-c; assay type: biochemical, HCV genotype 2a-c; settings: read-out: IC50 HCV-2a-c; HCV 2a-c NS3-NS4A protease
T3 sequence (P26660 1031-1661): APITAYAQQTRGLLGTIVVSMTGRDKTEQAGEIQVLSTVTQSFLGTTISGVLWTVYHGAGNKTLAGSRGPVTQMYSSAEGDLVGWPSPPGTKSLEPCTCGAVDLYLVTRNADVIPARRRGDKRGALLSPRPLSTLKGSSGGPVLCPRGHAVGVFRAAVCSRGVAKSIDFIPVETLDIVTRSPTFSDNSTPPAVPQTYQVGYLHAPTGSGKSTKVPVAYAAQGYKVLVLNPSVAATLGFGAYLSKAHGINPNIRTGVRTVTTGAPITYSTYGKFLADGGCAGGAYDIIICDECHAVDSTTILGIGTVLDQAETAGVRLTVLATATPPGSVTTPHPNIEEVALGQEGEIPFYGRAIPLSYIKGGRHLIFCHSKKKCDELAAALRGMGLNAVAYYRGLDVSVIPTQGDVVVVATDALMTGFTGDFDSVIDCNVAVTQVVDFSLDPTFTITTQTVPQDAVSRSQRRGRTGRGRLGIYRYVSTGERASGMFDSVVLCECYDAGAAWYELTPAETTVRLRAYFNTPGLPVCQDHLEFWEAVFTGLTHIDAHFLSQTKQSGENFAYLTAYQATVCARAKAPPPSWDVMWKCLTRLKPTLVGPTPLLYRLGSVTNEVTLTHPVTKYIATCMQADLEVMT
Procedure: The fluorogenic depsipeptide substrate used to assess inhibition of protease activity of the HCV 1a, 1b, 2b, 2a-c and 3a NS3-NS4A heterodimer protein was anthranilyl-DDIVPAbu[C(O)—O]-AMY(3-NO2)TW—OH (SEQ ID No.10). This substrate is cleaved between the aminobutyric (Abu) and the alanine residues. The sequence DDIVPAbu-AMYTW (SEQ ID No.11) is derived from the sequence DDIVPC—SMSYTW (SEQ ID No.12) corresponding to the NS5A/NS5B natural cleavage site. […] The protease activity was assayed in 50 mM Tris-HCl, pH 8.0, 0.25M sodium citrate, 0.01% n-dodecyl-β-D-maltoside, 1 mM TCEP. The assay was performed in a Microfluor®2 White U-Bottom Microtiter® plate. 5 μM of the substrate and various concentrations of the test compound were incubated with 1.5 nM of HCV 1a or 1b NS3-NS4A heterodimer protein for 45 minutes at 23° C. under gentle agitation. […] The reaction was terminated by the addition of a 1M 2-[N-morpholino]ethanesulfonic acid solution at pH 5.8.
The fluorescence was monitored using the BMG POLARstar Galaxy 96-well plate reader with an excitation filter of 320 nm, and an emission filter of 405 nm. The level of inhibition (% inhibition) of each well containing test compound was calculated with the following equation (FU=fluorescence unit): [formula]
The calculated % inhibition values were then used to determine IC50, slope factor (n) and maximum inhibition (Imax) by the non-linear regression routine NLIN procedure of SAS using the following equation: [formula] Inhibition Constant (Ki) Determination and mode of Inhibition

[4] = molecular target: T4, HCV 1a NS3-NS4A heterodimer protein (Hepatitis C virus genotype 1a, UniProt P27958); test: In vitro HCV NS3 protease assay (fluorogenic depsipeptide), genotype 1a; assay type: biochemical
T4 construct: Co-purification of mature NS3 and NS4A protein complex was verified by Western blot analysis; made in house; host or cells: Sf21 insect cells, recombinant baculovirus (pFastBac HTa)
Source text: as §1, §2

[5] = HCV 1a NS3-NS4A protease, read-out: IC50 HCV-1a

T2 sequence (P26662 1027-1657, one chain of several): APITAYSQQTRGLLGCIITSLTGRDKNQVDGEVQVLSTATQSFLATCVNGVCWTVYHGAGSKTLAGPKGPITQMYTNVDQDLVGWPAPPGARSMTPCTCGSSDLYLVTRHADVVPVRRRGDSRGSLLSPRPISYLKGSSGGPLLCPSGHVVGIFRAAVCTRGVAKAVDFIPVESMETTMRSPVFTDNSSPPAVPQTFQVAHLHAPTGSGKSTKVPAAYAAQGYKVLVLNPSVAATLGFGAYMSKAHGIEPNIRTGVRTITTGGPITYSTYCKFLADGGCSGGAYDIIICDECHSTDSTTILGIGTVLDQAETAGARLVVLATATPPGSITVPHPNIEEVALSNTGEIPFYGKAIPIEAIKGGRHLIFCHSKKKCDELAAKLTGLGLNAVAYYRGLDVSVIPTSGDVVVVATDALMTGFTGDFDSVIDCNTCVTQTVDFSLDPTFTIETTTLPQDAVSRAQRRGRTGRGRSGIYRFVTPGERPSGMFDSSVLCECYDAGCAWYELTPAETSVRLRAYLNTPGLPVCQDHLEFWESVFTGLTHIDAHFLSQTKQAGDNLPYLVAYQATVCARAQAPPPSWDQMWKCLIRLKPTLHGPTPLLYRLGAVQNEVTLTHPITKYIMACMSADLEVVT
T4 sequence (P27958 1027-1657): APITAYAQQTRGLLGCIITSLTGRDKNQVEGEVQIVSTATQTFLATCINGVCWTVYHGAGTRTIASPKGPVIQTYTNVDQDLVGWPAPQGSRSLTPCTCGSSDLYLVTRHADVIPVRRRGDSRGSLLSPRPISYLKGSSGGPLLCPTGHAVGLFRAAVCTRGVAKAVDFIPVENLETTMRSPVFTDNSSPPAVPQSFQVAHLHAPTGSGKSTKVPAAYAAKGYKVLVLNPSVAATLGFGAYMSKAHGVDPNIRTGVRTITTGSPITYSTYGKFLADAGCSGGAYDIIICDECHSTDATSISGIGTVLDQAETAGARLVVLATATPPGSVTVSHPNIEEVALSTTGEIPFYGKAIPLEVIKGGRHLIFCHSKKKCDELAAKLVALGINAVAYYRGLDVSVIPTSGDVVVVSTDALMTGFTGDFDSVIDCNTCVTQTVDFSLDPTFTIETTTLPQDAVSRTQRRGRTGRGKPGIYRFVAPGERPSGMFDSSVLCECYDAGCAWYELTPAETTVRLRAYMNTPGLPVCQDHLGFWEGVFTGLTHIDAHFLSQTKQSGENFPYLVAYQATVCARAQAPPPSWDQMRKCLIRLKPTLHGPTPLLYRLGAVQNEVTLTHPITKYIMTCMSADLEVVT
T4 sequence (P27958 1658-1711): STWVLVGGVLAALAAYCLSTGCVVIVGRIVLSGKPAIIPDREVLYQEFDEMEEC
T1 sequence (Q69422 1565-1615): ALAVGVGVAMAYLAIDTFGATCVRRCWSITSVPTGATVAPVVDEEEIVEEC
T1 sequence (Q69422 941-1564): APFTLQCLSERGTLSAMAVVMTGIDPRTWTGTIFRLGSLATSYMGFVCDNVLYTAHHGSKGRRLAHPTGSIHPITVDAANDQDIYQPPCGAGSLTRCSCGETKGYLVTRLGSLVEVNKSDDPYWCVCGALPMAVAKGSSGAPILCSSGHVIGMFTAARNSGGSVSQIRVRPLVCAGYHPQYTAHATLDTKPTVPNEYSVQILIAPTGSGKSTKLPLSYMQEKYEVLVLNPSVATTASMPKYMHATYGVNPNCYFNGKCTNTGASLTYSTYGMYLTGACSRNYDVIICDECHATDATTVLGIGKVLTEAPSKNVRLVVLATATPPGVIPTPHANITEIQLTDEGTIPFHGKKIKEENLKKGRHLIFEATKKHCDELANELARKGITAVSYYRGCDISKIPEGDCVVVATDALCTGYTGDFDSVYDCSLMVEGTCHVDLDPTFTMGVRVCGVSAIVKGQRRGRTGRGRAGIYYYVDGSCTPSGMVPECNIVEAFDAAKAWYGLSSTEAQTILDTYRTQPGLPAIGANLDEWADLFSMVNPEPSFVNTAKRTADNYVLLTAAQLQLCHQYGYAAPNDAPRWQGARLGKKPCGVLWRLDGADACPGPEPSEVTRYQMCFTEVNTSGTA

SMILES	IC50 [1] [nM]	IC50 [2] [nM]	IC50 [3] [nM]	IC50 [4, 5] [nM]	IC50 [4] [nM]
COc1ccc2c(O[C@@H]3C[C@H]4C(=O)N[C@]5(C(=O)O)CC5/C=C\CCCCC[C@H](NC(=O)OC(C)(C)C)C(=O)N4C3)cc(-c3ccccc3)nc2c1 (stereo partly drawn) [II]	36500	8.9	680	7.8	
COc1ccc2c(O[C@@H]3C[C@H]4C(=O)N[C@]5(C(=O)O)CC5/C=C\CCCCC[C@H](NC(=O)OC5CCCC5)C(=O)N4C3)cc(-c3csc(NC(C)C)n3)nc2c1 (stereo partly drawn) [IV]	16000	3.4	200		4.3
COc1ccc2c(O[C@@H]3C[C@H]4C(=O)N[C@]5(C(=O)O)CC5/C=C\CCCCC[C@H](NC(=O)OC(C)(C)C)C(=O)N4C3)cc(-c3csc(NC(C)=O)n3)nc2c1 (stereo partly drawn) [III]	31000	4.2	490	4.1	
